Square brackets hold non-standard residues; d marks the D form. Peptide text beside a SMILES is read from it.
Key:
[1] = Plasma drug concentrations and pharmacokinetics after a single subcutaneous injection of SP peptide or SIPI-D00 peptide in SD rats; type: in vivo
Description: Route: Single back subcutaneous injection;
Dosage of the drug: SP peptide and SIPI-D00 peptide were prepared into 3.33 mg/mL solution with normal saline, the dosage of SP peptide by back subcutaneous injection was 10 mg/kg body weight, and the dosage of SIPI-D00 peptide by back subcutaneous injection was 5 mg/kg body weight. […]

serum IgE = assay: Serum IgE level in OVA-induced allergic asthma model mice; type: in vivo, BALB/c mice; settings: for Serum IgE level (OD450): days 19-28, n=10
Description: The first batch: mice were divided into groups, 10 mice in each group, namely: blank control group (normal saline), model group (OVA, 20 ug/mouse), SP peptide group (administered dose of 175 µg/kg body weight/day, 350 µg/kg body weight/day, respectively), SIPI-D00 peptide group (administered dose of 175 µg/kg body weight/day, 350 µg/kg body weight/day), and dexamethasone group (administered dose of 2 mg/kg body weight/day).
OVA for sensitization was dissolved in sterile PBS solution at a final concentration of 0.2 mg/mL, then an equal volume of aluminum hydroxide adjuvant was added. After shaking for 30 minutes, each mouse was intraperitoneally injected with 0.2 mL (20 µg OVA per mouse).
2% OVA solution was prepared in sterile PBS. The 2% OVA was nebulized with a nebulizer, and the mice were placed in the nebulizer inhalation box for 30 minutes per day.
According to the dosage, SP peptide and SIPI-D00 were dissolved in normal saline respectively, and administered by subcutaneous administration on the back according to the body weight of the animals.
Mice in the model group, SP peptide group, SIPI-D00 peptide group and dexamethasone group were sensitized by intraperitoneal injection of OVA (20 µg OVA/mice) on day 0, 7, and 14, and challenged by aerosol administration of OVA (once a day for 5 consecutive days) on day 21-25 to construct asthmatic model animals. Mice in the model group were given normal saline on days 21-28; mice in different doses of SP peptide group and SIPI-D00 peptide group were injected subcutaneously with different doses of SP and SIPI-D00 on days 19-28; mice in dexamethasone group were injected intraperitoneally with 2 mg/kg/day dexamethasone on days 21-28. At the same time, 10 mice in the blank control group were fed normally from day 0 to day 28 without any treatment, and were given normal saline as a blank control.
After 28 days, blood was collected from the inner canthus of the mouse, and the serum was collected, and the IgE level in the serum was measured with an ELISA kit. […]
At the same time, 10 mice in the blank control group were fed normally from day 0 to day 28 without any treatment, and were given normal saline as a blank control.

[2] = test system: ConA-stimulated mouse splenocytes; assay: Secretion of IL-4 from mouse splenocytes stimulated by ConA (ELISA); type: cell-based, BALB/C mice; settings: for IL-4 levels of polypeptides: ConA 5 µg/mL, 24 h
Description: (§1) Three BALB/C mice were sacrificed by cervical dislocation after anesthesia. Then mice were immersed in 75% ethanol for 5 minutes. After dissection and spleen extraction, spleen lymphocytes were prepared. […] Different concentrations of test substances were added to each well, and duplicate wells were set for each concentration, and the final concentration of ConA was 5 µg/mL. The plate was incubated in a 37° C. 5% CO2 incubator for 24 h, the drug-containing cell suspension was aspirated from each well, then centrifuged at 200 g for 15 min at 4° C. The supernatant was taken, and mouse IL-4 Elisa kit was used to detect IL- 4 content.
as §1, with “each concentration was” for “duplicate wells were”, “up as triple wells,” for “for each concentration,”, “kit (mouse IL-4 Elisa kit)” for “kit”

Plasma concentration ([1]; SIPI-D00 5 mg/kg s.c., SD rats, time 0 h, parallels 1-4): 0 ng/mL
Plasma concentration ([1]; SIPI-D00 5 mg/kg s.c., SD rats, time 0.1 h, parallels 1-4, 5 mg/kg): 5167 ng/mL
Plasma concentration ([1]; SIPI-D00 5 mg/kg s.c., SD rats, time 0.333 h, parallels 1-4, 5 mg/kg): 5836 ng/mL
Plasma concentration ([1]; SIPI-D00 5 mg/kg s.c., SD rats, time 0.667 h, parallels 1-4, 5 mg/kg): 5242 ng/mL
Plasma concentration ([1]; SIPI-D00 5 mg/kg s.c., SD rats, time 2 h, parallels 1-4, 5 mg/kg): 1185 ng/mL
Fa ([1]; SIPI-D00 5 mg/kg single subcutaneous injection, SD rats, Mean±SD): 96.3±13.3%
level at 0.1 h ([1]; male, SD, rat, plasma, sc, 5 mg/kg, SIPI-D00 5 mg/kg s.c., SD rats, time 0.1 h, parallels 1-4, read-out: Plasma concentration): 3580 ng/mL
level at 0.167 h ([1]; male, SD, rat, plasma, sc, 5 mg/kg, SIPI-D00 5 mg/kg s.c., SD rats, time 0.167 h, parallels 1-4, read-out: Plasma concentration): 4720 ng/mL
level at 0.333 h ([1]; male, SD, rat, plasma, sc, 5 mg/kg, SIPI-D00 5 mg/kg s.c., SD rats, time 0.333 h, parallels 1-4, read-out: Plasma concentration): 5890 ng/mL
level at 0.667 h ([1]; male, SD, rat, plasma, sc, 5 mg/kg, SIPI-D00 5 mg/kg s.c., SD rats, time 0.667 h, parallels 1-4, read-out: Plasma concentration): 5260 ng/mL
level at 1 h ([1]; male, SD, rat, plasma, sc, 5 mg/kg, SIPI-D00 5 mg/kg s.c., SD rats, time 1 h, parallels 1-4, read-out: Plasma concentration): 3940 ng/mL
level at 2 h ([1]; male, SD, rat, plasma, sc, 5 mg/kg, SIPI-D00 5 mg/kg s.c., SD rats, time 2 h, parallels 1-4, read-out: Plasma concentration): 1160 ng/mL
level at 3 h ([1]; male, SD, rat, plasma, sc, 5 mg/kg, SIPI-D00 5 mg/kg s.c., SD rats, time 3 h, parallels 1-4, read-out: Plasma concentration): 291 ng/mL
level at 4 h ([1]; male, SD, rat, plasma, sc, 5 mg/kg, SIPI-D00 5 mg/kg s.c., SD rats, time 4 h, parallels 1-4, read-out: Plasma concentration): 53.5 ng/mL
level at 6 h ([1]; male, SD, rat, plasma, sc, 5 mg/kg, SIPI-D00 5 mg/kg s.c., SD rats, time 6 h, parallels 1-4, read-out: Plasma concentration): 3.51 ng/mL
AUC compared with SP ([1]; rat, in vivo, sc): significantly improved compared with SP
AUC(0-t) ([1]; rat, in vivo, sc, 5 mg/kg): 8820 ± 1320 ng·h/mL
Cmax ([1]; rat, in vivo, sc, 5 mg/kg): 5910 ± 447 ng/mL
MRT last ([1]; rat, in vivo, sc, 5 mg/kg): 57.8 ± 1.14 min
Tmax ([1]; rat, in vivo, sc, 5 mg/kg): 12.5 ± 4.98 min
half-life ([1]; rat, in vivo, sc, 5 mg/kg): 90 min
Compound: C[C@H](O)[C@@H](NC(=O)[C@@H](Cc1ccc(O)cc1)NC(=O)[C@H](NC(=O)[C@@H](CO)NC(=O)CN)[C@H](C)O)C(=O)N[C@H](CCC(N)=O)C(=O)NCC(=O)O [SIPI-D00, GSTYTQG] (H-G[dS][dT][dY][dT][dQ]G-OH)
Serum IgE level (OD450) (serum IgE; 175 ug/kg/day subcutaneous): 0.421 ± 0.044 OD450
Serum IgE level (OD450) (serum IgE; 350 ug/kg/day subcutaneous): 0.279 ± 0.036 OD450
IgE level in the serum (in words) (serum IgE; compared with the model group and SP peptide group): significantly decreased
secretion of IL-4 by ConA-stimulated mouse spleen lymphocytes (in words) [2]: significantly inhibit
Inhibitory rate of polypeptide on IL-4 secretion ([2]; peptide concentration 1 µg/mL): 34.96%
IL-4 levels of polypeptides ([2]; peptide concentration 1 µg/mL): 14.05 ± 2.19 pg/mL
Inhibitory rate of polypeptide on IL-4 secretion ([2]; peptide concentration 3 µg/mL): 59.68%
IL-4 levels of polypeptides ([2]; peptide concentration 3 µg/mL): 8.71 ± 0.95 pg/mL
Inhibitory rate of polypeptide on IL-4 secretion ([2]; peptide concentration 10 µg/mL): 71.00%
IL-4 levels of polypeptides ([2]; peptide concentration 10 µg/mL): 6.26 ± 0.36 pg/mL
Inhibitory rate of polypeptide on IL-4 secretion ([2]; peptide concentration 30 µg/mL): 72.82%
IL-4 levels of polypeptides ([2]; peptide concentration 30 µg/mL): 5.87 ± 0.49 pg/mL

Source: patent US20230203095A1, “BIOLOGICAL PEPTIDE FOR TREATING LUNG DISEASES AND APPLICATION THEREOF” (SHANGHAI INSTITUTE OF PHARMACEUTICAL INDUSTRY CO., LTD., priority 2019, published 2023)
